Common to all, as to assay: Antibacterial activity assay (MIC, broth dilution)
Holding throughout (format): cell-based
Background: Dilution methods test growth across graded concentrations, often in twofold steps.

For one assay, the system named is Acinetobacter baumannii. To be noted: Acinetobacter baumannii; Table 16; CLSI M07-A10 dilution method; read-out: MIC A. baumannii. The method, then:
(§1) Determination of the Minimal Inhibitory Concentrations (MIC) by dilution was carried out by broth dilution according to CLSI standards. See CLSI, Methods for Dilution Antimicrobial Susceptibility Tests for Bacteria That Grow Aerobically; Approved Standard—Eighth Edition. 2009, the contents of which are hereby incorporated by reference. Briefly, the minimum inhibitory concentration MIC, is the lowest concentration of a compound that prevents visible growth of a bacterium, in other words at which it has bacteriostatic activity.
(§2) Compounds were tested for MIC by methods known in the art and described in CLSI, Methods for Dilution Antimicrobial Susceptibility Tests for Bacteria That Grow Aerobically; Approved Standard—Tenth Edition. CLSI document M07-A10. Wayne, Pa.: Clinical and Laboratory Standards Institute, 2015, which is hereby incorporated by reference for these methods.
(§3) Selected compounds also were tested by broth microdilution methods known in the art and described in CLSI, Methods for Dilution Antimicrobial Susceptibility Tests for Bacteria That Grow Aerobically; Approved Standard—Tenth Edition. CLSI document M07-A10. Wayne, Pa.: Clinical and Laboratory Standards Institute, 2015, which is hereby incorporated by reference. Structures of selected compounds in the tables are listed below.

A further assay deals with Staphylococcus aureus. To be noted: Staphylococcus aureus; Table 16; CLSI M07-A10 dilution method; read-out: MIC S. aureus.
The test system of a further assay is Enterococcus faecium. To be noted: Enterococcus faecium; Table 16; CLSI M07-A10 dilution method; read-out: MIC E. faecium. The method, then:
as §1
For these tests, cation-adjusted Mueller Hinton broth, containing 10% brain-heart infusion (BHI) was used. Concentrations (MIC) are given in μg/mL. The compound was […].
as §2, §3

Structures are written as SMILES.

As a reminder, the MIC is the least concentration at which growth counts as inhibited. For `CN(C)c1ccc(/C=C/c2cc(-c3ccc(Br)cc3)cc(-c3cccc(Br)c3)[n+]2C)cc1.[I-]` [Compound 9l, (E)-2-(3-bromophenyl)-4-(4-bromophenyl)-6-(4-(dimethylamino)styryl)-1-methylpyridin-1-ium iodide], the MIC with Acinetobacter baumannii worked out at 16 µg/mL; in the assay on Staphylococcus aureus it was 8 µg/mL; in the assay on Enterococcus faecium, 4 µg/mL.

Regarding `CCN(CC)c1ccc(/C=C/c2cc(-c3ccc(Br)cc3)cc(-c3cccc(Br)c3)[n+]2C)cc1.[I-]` [Compound 9m, (E)-2-(3-bromophenyl)-4-(4-bromophenyl)-6-(4-(diethylamino)styryl)-1-methylpyridin-1-ium iodide], the MIC in the assay with Acinetobacter baumannii amounted to 8 µg/mL; with Staphylococcus aureus, 8 µg/mL; with Enterococcus faecium it was 4 µg/mL.

Take `Cc1ccc(-c2cc(-c3ccc(Cl)cc3)cc(/C=C/c3ccc(N(C)C)cc3)[n+]2C)cc1.[I-]` [Compound 9n, (E)-4-(4-chlorophenyl)-2-(4-(dimethylamino)styryl)-1-methyl-6-(p-tolyl)-pyridin-1-ium iodide]: the MIC in the assay with Acinetobacter baumannii was 4 µg/mL; with Staphylococcus aureus it was 4 µg/mL; in the assay with Enterococcus faecium, 2 µg/mL.

Regarding `CCN(CC)c1ccc(/C=C/c2cc(-c3ccc(Cl)cc3)cc(-c3ccc(C)cc3)[n+]2C)cc1.[I-]` [Compound 9o, (E)-4-(4-chlorophenyl)-2-(4-(diethylamino)styryl)-1-methyl-6-(p-tolyl)pyridin-1-ium iodide], the MIC was 16 µg/mL with Acinetobacter baumannii, 32 µg/mL in the assay on Staphylococcus aureus and 16 µg/mL in the assay with Enterococcus faecium.

With `Cc1ccc(-c2cc(-c3ccc(Cl)cc3)cc(/C=C/c3ccc(N(C)CCC#N)cc3)[n+]2C)cc1.[I-]` [Compound 9q, (E)-4-(4-chlorophenyl)-2-(4-((2-cyanoethyl)(methyl)amino)styryl)-1-methyl-6-(p-tolyl)pyridin-1-ium iodide], the values for the minimal inhibitory concentration (MIC) in the assay with Acinetobacter baumannii, in the assay on Staphylococcus aureus and in the assay with Enterococcus faecium were 16 µg/mL, 0.25 µg/mL and 2 µg/mL, respectively.

Take `CCN(CC)c1ccc(/C=C/c2cc(-c3ccc(Br)cc3)cc(-c3ccc(C)cc3C)[n+]2C)cc1.[I-]` [Compound 9r, (E)-4-(4-bromophenyl)-2-(4-(diethylamino)styryl)-6-(2,4-dimethylphenyl)-1-methylpyridin-1-ium iodide]: the MIC stood at 8 µg/mL with Acinetobacter baumannii, 0.5 µg/mL in the assay with Staphylococcus aureus and 1 µg/mL in the assay with Enterococcus faecium.

Take `Cc1ccc(-c2cc(-c3ccc(Br)cc3)cc(/C=C/c3ccc(N(C)CCO)cc3)[n+]2C)c(C)c1.[I-]` [Compound 9t, (E)-4-(4-bromophenyl)-2-(2,4-dimethylphenyl)-6-(4-((2-hydroxyethyl)(methyl)-amino)styryl)-1-methylpyridin-1-ium iodide]: the MIC in the assay on Acinetobacter baumannii was 16 µg/mL; in the assay on Staphylococcus aureus it was 0.5 µg/mL; with Enterococcus faecium, 2 µg/mL.

Regarding `Cc1ccc(-c2cc(-c3ccc(Br)cc3)cc(/C=C/c3ccc(N(C)CCC#N)cc3)[n+]2C)cc1C.[I-]` [Compound 9u, (E)-4-(4-bromophenyl)-2-(4-((2-cyanoethyl)(methyl)amino)styryl)-6-(3,4-dimethylphenyl)-1-methylpyridin-1-ium iodide], the MIC was 16 µg/mL with Acinetobacter baumannii, 2 µg/mL in the assay with Staphylococcus aureus and 8 µg/mL with Enterococcus faecium.

`Cc1ccc(-c2cc(-c3ccc(Br)cc3)cc(/C=C/c3ccc(N(C)C)cc3)[n+]2C)cc1C.[I-]` [Compound 9w, (E)-4-(4-bromophenyl)-2-(4-(dimethylamino)styryl)-6-(3,4-dimethylphenyl)-1-methylpyridin-1-ium iodide]: the MIC amounted to 8 µg/mL with Acinetobacter baumannii, 1 µg/mL in the assay with Staphylococcus aureus and 4 µg/mL in the assay with Enterococcus faecium.

As for `Cc1ccc(-c2cc(-c3ccc(Br)cc3)cc(/C=C/c3ccc(N(C)CCO)cc3)[n+]2C)cc1C.[I-]` [Compound 9x, (E)-4-(4-bromophenyl)-2-(3,4-dimethylphenyl)-6-(4-((2-hydroxyethyl)(methyl)-amino)styryl)-1-methylpyridin-1-ium iodide], the MIC is 16 µg/mL with Acinetobacter baumannii, 1 µg/mL with Staphylococcus aureus and 8 µg/mL with Enterococcus faecium.

Regarding `COc1cc(-c2cc(/C=C/c3ccc(N(C)C)cc3)[n+](C)c(-c3ccc(Br)cc3)c2)cc(OC)c1Br.[I-]` [Compound 9y1, (E)-4-(4-bromo-3,5-dimethoxyphenyl)-2-(4-bromophenyl)-6-(4-(dimethyl-amino)styryl)-1-methylpyridin-1-ium iodide], the MIC in the assay on Acinetobacter baumannii is 16 µg/mL; with Staphylococcus aureus, 2 µg/mL; in the assay on Enterococcus faecium it was 8 µg/mL.

Consider `CCN(CC)c1ccc(/C=C/c2cc(-c3cc(OC)c(Br)c(OC)c3)cc(-c3ccc(Br)cc3)[n+]2C)cc1.[I-]` [Compound 9y2, (E)-4-(4-bromo-3,5-dimethoxyphenyl)-2-(4-bromophenyl)-6-(4-(diethylamino)-styryl)-1-methylpyridin-1-ium iodide], for which the MIC in the assay with Acinetobacter baumannii was 8 µg/mL; with Staphylococcus aureus, 1 µg/mL; in the assay on Enterococcus faecium it was 4 µg/mL.

Regarding `COc1cc(-c2cc(/C=C/c3ccc(N(C)CCO)cc3)[n+](C)c(-c3ccc(Br)cc3)c2)cc(OC)c1Br.[I-]` [Compound 9y3, (E)-4-(4-bromo-3,5-dimethoxyphenyl)-2-(4-bromophenyl)-6-(4-((2-hydroxy-ethyl)(methyl)amino)styryl)-1-methylpyridin-1-ium iodide], the MIC with Acinetobacter baumannii came out at 8 µg/mL; with Staphylococcus aureus, 4 µg/mL; in the assay on Enterococcus faecium it was 8 µg/mL.

As to `COc1cc(-c2cc(/C=C/c3ccc(N(C)CCC#N)cc3)[n+](C)c(-c3ccc(Br)cc3)c2)cc(OC)c1Br.[I-]` [Compound 9y4, (E)-4-(4-bromo-3,5-dimethoxyphenyl)-2-(4-bromophenyl)-6-(4-((2-cyano-ethyl)(methyl)amino)styryl)-1-methylpyridin-1-ium iodide], the MIC worked out at 8 µg/mL in the assay on Acinetobacter baumannii, 4 µg/mL with Staphylococcus aureus and 8 µg/mL with Enterococcus faecium.

For the molecule `CN(C)c1ccc(/C=C/c2cc(-c3ccc(Br)cc3Cl)cc(-c3ccc(Br)cc3)[n+]2C)cc1.[I-]` [Compound 9z1, (E)-4-(4-bromo-2-chlorophenyl)-2-(4-bromophenyl)-6-(4-(dimethylamino)-styryl)-1-methylpyridin-1-ium iodide], the figures for the MIC with Acinetobacter baumannii, in the assay with Staphylococcus aureus and in the assay with Enterococcus faecium were 32 µg/mL, 4 µg/mL and 8 µg/mL, respectively.

Take `CCN(CC)c1ccc(/C=C/c2cc(-c3ccc(Br)cc3Cl)cc(-c3ccc(Br)cc3)[n+]2C)cc1.[I-]` [Compound 9z2, (E)-4-(4-bromo-2-chlorophenyl)-2-(4-bromophenyl)-6-(4-(diethylamino)-styryl)-1-methylpyridin-1-ium iodide]: the results for the MIC with Acinetobacter baumannii, in the assay on Staphylococcus aureus and in the assay on Enterococcus faecium were 2 µg/mL, 0.5 µg/mL and 1 µg/mL, respectively.

Consider `CN(CCO)c1ccc(/C=C/c2cc(-c3ccc(Br)cc3Cl)cc(-c3ccc(Br)cc3)[n+]2C)cc1.[I-]` [Compound 9z3, (E)-4-(4-bromo-2-chlorophenyl)-2-(4-bromophenyl)-6-(4-((2-hydroxyethyl)-(methyl)amino)styryl)-1-methylpyridin-1-ium iodide], for which the MIC with Acinetobacter baumannii was 16 µg/mL; in the assay with Staphylococcus aureus, 2 µg/mL; in the assay on Enterococcus faecium, 4 µg/mL.

For the molecule `CN(CCC#N)c1ccc(/C=C/c2cc(-c3ccc(Br)cc3Cl)cc(-c3ccc(Br)cc3)[n+]2C)cc1.[I-]` [Compound 9z4, (E)-4-(4-bromo-2-chlorophenyl)-2-(4-bromophenyl)-6-(4-((2-cyanoethyl)-(methyl)amino)styryl)-1-methylpyridin-1-ium iodide], the MIC is 32 µg/mL in the assay with Acinetobacter baumannii, 2 µg/mL in the assay with Staphylococcus aureus and 4 µg/mL with Enterococcus faecium.

The values above are taken from US10941114B2, “Small molecule lipid II inhibitors” (University Of Maryland, Baltimore, priority 2015, dated 2021).
